Assay results from patent US10202377B2, “3-(1H-benzo[D]imidazol-2-yl)-1H-pyrazolo[3,4-C]pyridine and therapeutic uses thereof” (Samumed, LLC, priority 2014, dated 2019).

Each molecule was assayed on primary human fibroblasts derived from IPF patients (LL29 cells) (assay: Inhibition of fibrosis (αSMA staining) in TGF-β1-treated primary human fibroblasts from IPF patients). Conditions: Fibroblast, 96 h, TGF-β1 20 ng/mL, 4 days.
Assay type: cell-based
Procedure: The above synthesized compounds were screened using primary human fibroblasts (derived from IPF patients) treated with TGF-β1 to determine their ability to inhibit the fibrotic process.
Compound Screening: Each compound was dissolved in DMSO as a 10 mM stock and used to prepare compound source plates. […] LL29 cells were plated at 1,500 cells/well in 80 μl/well F12 medium supplemented with 1% Fetal Bovine Serum. One hour after addition of the cells, TGF-β1 (Peprotech; 20 ng/mL) was added to the plates to induce fibrosis (ref. 1 and 2 above). Wells treated with TGF-β1 and containing DMSO were used as controls. Cells were incubated at 37° C. and 5% CO2 for 4 days. Following incubation for 4 days, SYTOX green nucleic acid stain (Life Technologies [Thermo Fisher Scientific]) was added to the wells at a final concentration of 1 uM and incubated at room temperature for 30 min. Cells were then fixed using 4% formaldehyde (Electron Microscopy Sciences), washed 3 times with PBS followed by blocking and permeabilization using 3% Bovine Serum Albumin (BSA; Sigma) and 0.3% Triton X-100 (Sigma) in PBS. Cells were then stained with antibody specific to α-smooth muscle actin (aSMA; Abcam) (ref. 1 and 2 above) in 3% Bovine Serum Albumin (BSA; Sigma) and 0.3% Triton X-100 (Sigma) in PBS, and incubated overnight at 4° C. […] Dead or apoptotic cells were excluded from analysis based on positive SYTOX green staining. % of total cells positive for αSMA were counted in each well and normalized to the average of 11 wells treated with TGF-β1 on the same plate using Dotmatics' Studies Software. […] The EC50 values are reported.
`CC(C)CC(=O)Nc1cncc(-c2cc3c(-c4nc5c(-c6cc(O)cc(F)c6)cccc5[nH]4)n[nH]c3cn2)c1` [Compound 1350, N-(5-(3-(4-(3-Fluoro-5-hydroxyphenyl)-1H-benzo[d]imidazol-2-yl)-1H-pyrazolo[3,4-c]pyridin-5-yl)pyridin-3-yl)-3-methylbutanamide] was tested, and the EC50 was 9 nM. With `Oc1cncc(-c2cc3c(-c4nc5c(-c6cccc(F)c6)cccc5[nH]4)n[nH]c3cn2)c1` [Compound 949, 5-(3-(4-(3-Fluorophenyl)-1H-benzo[d]imidazol-2-yl)-1H-pyrazolo[3,4-c]pyridin-5-yl)pyridin-3-ol] the EC50 was 9990 nM. With `O=C(Nc1cncc(-c2cc3c(-c4nc5c(-c6ccncc6)cccc5[nH]4)n[nH]c3cn2)c1)C1CCCCC1` [Compound 126, N-(5-(3-(4-(Pyridin-4-yl)-1H-benzo[d]imidazol-2-yl)-1H-pyrazolo[3,4-c]pyridin-5-yl)pyridin-3-yl)cyclohexanecarboxamide] the EC50 was 9990 nM. Molecule `CN1CCN(c2cccc3[nH]c(-c4n[nH]c5cnc(-c6cncc(CN7CCCCC7)c6)cc45)nc23)CC1` [Compound 223, 3-(4-(4-Methylpiperazin-1-yl)-1H-benzo[d]imidazol-2-yl)-5-(5-(piperidin-1-ylmethyl)pyridin-3-yl)-1H-pyrazolo[3,4-c]pyridine] has an EC50 of 2610 nM.

The molecules below were run on Wnt activity (Sp5-Luc reporter, SW480 colon carcinoma cells) (assay: Sp5-Luc Wnt reporter gene screening assay in SW480 colon carcinoma cells). Conditions: Homo sapiens.
Molecule `CN(C)c1cncc(-c2cc3c(-c4nc5c(-c6cccs6)cccc5[nH]4)n[nH]c3cn2)c1` [Compound 319, N,N-Dimethyl-5-(3-(4-(thiophen-2-yl)-1H-benzo[d]imidazol-2-yl)-1H-pyrazolo[3,4-c]pyridin-5-yl)pyridin-3-amine] has an IC50 of 77.9 nM. Molecule `CC(C)CC(=O)Nc1cncc(-c2cc3c(-c4nc5c(-c6cc(O)cc(F)c6)cccc5[nH]4)n[nH]c3cn2)c1` [Compound 1350, N-(5-(3-(4-(3-Fluoro-5-hydroxyphenyl)-1H-benzo[d]imidazol-2-yl)-1H-pyrazolo[3,4-c]pyridin-5-yl)pyridin-3-yl)-3-methylbutanamide] has an IC50 of over 10000 nM. `Oc1cncc(-c2cc3c(-c4nc5c(-c6cccc(F)c6)cccc5[nH]4)n[nH]c3cn2)c1` [Compound 949, 5-(3-(4-(3-Fluorophenyl)-1H-benzo[d]imidazol-2-yl)-1H-pyrazolo[3,4-c]pyridin-5-yl)pyridin-3-ol] showed an IC50 of 29 nM. In the case of `O=C(Nc1cncc(-c2cc3c(-c4nc5c(-c6ccncc6)cccc5[nH]4)n[nH]c3cn2)c1)C1CCCCC1` [Compound 126, N-(5-(3-(4-(Pyridin-4-yl)-1H-benzo[d]imidazol-2-yl)-1H-pyrazolo[3,4-c]pyridin-5-yl)pyridin-3-yl)cyclohexanecarboxamide], the IC50 is reported as over 10000 nM. `CC(C)C(=O)Nc1cncc(-c2cc3c(-c4nc5c(N6CCN(C)CC6)cccc5[nH]4)n[nH]c3cn2)c1` [Compound 217, N-(5-(3-(4-(4-Methylpiperazin-1-yl)-1H-benzo[d]imidazol-2-yl)-1H-pyrazolo[3,4-c]pyridin-5-yl)pyridin-3-yl)isobutyramide] showed an IC50 of 355 nM. In the case of `O=C(CC1CCNCC1)Nc1cncc(-c2cc3c(-c4nc5c(-c6cccc(F)c6)cccc5[nH]4)n[nH]c3cn2)c1` [Compound 945, N-(5-(3-(4-(3-Fluorophenyl)-1H-benzo[d]imidazol-2-yl)-1H-pyrazolo[3,4-c]pyridin-5-yl)pyridin-3-yl)-2-(piperidin-4-yl)acetamide], the IC50 is reported as over 10000 nM. `Fc1cccc(-c2cccc3[nH]c(-c4n[nH]c5cnc(-c6cncc(OCc7ccccc7)c6)cc45)nc23)c1` [Compound 950, 5-(5-(Benzyloxy)pyridin-3-yl)-3-(4-(3-fluorophenyl)-1H-benzo[d]imidazol-2-yl)-1H-pyrazolo[3,4-c]pyridine] gave an IC50 of 165 nM. Molecule `CC(C)CC(=O)Nc1cncc(-c2cc3c(-c4nc5c(-c6cc(F)cc(OCCN7CCCC7)c6)cccc5[nH]4)n[nH]c3cn2)c1` [Compound 1306, N-(5-(3-(4-(3-Fluoro-5-(2-(pyrrolidin-1-yl)ethoxy)phenyl)-1H-benzo[d]imidazol-2-yl)-1H-pyrazolo[3,4-c]pyridin-5-yl)pyridin-3-yl)-3-methylbutanamide] has an IC50 of 1370 nM. `CCCC(=O)Nc1cncc(-c2cc3c(-c4nc5c(-c6ccncc6)cccc5[nH]4)n[nH]c3cn2)c1` [Compound 121, N-(5-(3-(4-(Pyridin-4-yl)-1H-benzo[d]imidazol-2-yl)-1H-pyrazolo[3,4-c]pyridin-5-yl)pyridin-3-yl)butyramide] was tested, and the IC50 was over 10000 nM. For `Fc1cccc(-c2cccc3[nH]c(-c4n[nH]c5cnc(-c6cncc(OCCN7CCCC7)c6)cc45)nc23)c1` [Compound 946, 3-(4-(3-Fluorophenyl)-1H-benzo[d]imidazol-2-yl)-5-(5-(2-(pyrrolidin-1-yl)ethoxy)pyridin-3-yl)-1H-pyrazolo[3,4-c]pyridine], the IC50 was 580 nM. Work on `Fc1cccc(-c2cccc3[nH]c(-c4n[nH]c5cnc(-c6cncc(OC7CCCCC7)c6)cc45)nc23)c1` [Compound 943, 5-(5-(Cyclohexyloxy)pyridin-3-yl)-3-(4-(3-fluorophenyl)-1H-benzo[d]imidazol-2-yl)-1H-pyrazolo[3,4-c]pyridine] yielded an IC50 of 560 nM. `CC(=O)c1ccc(-c2cccc3[nH]c(-c4n[nH]c5cnc(-c6cncc(NC(=O)CC(C)(C)C)c6)cc45)nc23)s1` [Compound 406, N-(5-(3-(4-(5-Acetylthiophen-2-yl)-1H-benzo[d]imidazol-2-yl)-1H-pyrazolo[3,4-c]pyridin-5-yl)pyridin-3-yl)-3,3-dimethylbutanamide] gave an IC50 of 247 nM. Molecule `O=C(Nc1cncc(-c2cc3c(-c4nc5c(-c6ccoc6)cccc5[nH]4)n[nH]c3cn2)c1)C1CCC1` [Compound 306, N-(5-(3-(4-(Furan-3-yl)-1H-benzo[d]imidazol-2-yl)-1H-pyrazolo[3,4-c]pyridin-5-yl)pyridin-3-yl)cyclobutanecarboxamide] has an IC50 of 16.8 nM. Molecule `CC(C)CC(=O)Nc1cncc(-c2cc3c(-c4nc5c(-c6ccc(F)s6)cccc5[nH]4)n[nH]c3cn2)c1` [Compound 340, N-(5-(3-(4-(5-Fluorothiophen-2-yl)-1H-benzo[d]imidazol-2-yl)-1H-pyrazolo[3,4-c]pyridin-5-yl)pyridin-3-yl)-3-methylbutanamide] has an IC50 of 17.3 nM. For `Cn1cc(-c2cc3c(-c4nc5c(-c6cccc(F)c6)cccc5[nH]4)n[nH]c3cn2)cn1` [Compound 940, 3-(4-(3-Fluorophenyl)-1H-benzo[d]imidazol-2-yl)-5-(1-methyl-1H-pyrazol-4-yl)-1H-pyrazolo[3,4-c]pyridine], the IC50 was 46 nM. `CS(=O)(=O)NCc1cc(F)cc(-c2cccc3[nH]c(-c4n[nH]c5cnc(-c6cncc(NC(=O)C7CCC7)c6)cc45)nc23)c1` [Compound 436, N-(5-(3-(4-(3-Fluoro-5-(methylsulfonamidomethyl)phenyl)-1H-benzo[d]imidazol-2-yl)-1H-pyrazolo[3,4-c]pyridin-5-yl)pyridin-3-yl) cyclobutanecarboxamide] was tested, and the IC50 was 25.8 nM. In the case of `O=C(Nc1cncc(-c2cc3c(-c4nc5ccccc5[nH]4)n[nH]c3cn2)c1)C1CCCCC1` [Compound 256, N-(5-(3-(1H-Benzo[d]imidazol-2-yl)-1H-pyrazolo[3,4-c]pyridin-5-yl)pyridin-3-yl)cyclohexanecarboxamide], the IC50 is reported as 95.6 nM. `Fc1cccc(-c2cccc3[nH]c(-c4n[nH]c5cnc(C6=CCNCC6)cc45)nc23)c1` [Compound 938, 3-(4-(3-Fluorophenyl)-1H-benzo[d]imidazol-2-yl)-5-(1,2,3,6-tetrahydropyridin-4-yl)-1H-pyrazolo[3,4-c]pyridine] was tested, and the IC50 was 145 nM. With `NC1CN(c2cncc(-c3cc4c(-c5nc6c(-c7cccc(F)c7)cccc6[nH]5)n[nH]c4cn3)n2)C1` [Compound 942, 1-(6-(3-(4-(3-Fluorophenyl)-1H-benzo[d]imidazol-2-yl)-1H-pyrazolo[3,4-c]pyridin-5-yl)pyrazin-2-yl)azetidin-3-amine] the IC50 was 79 nM. `Fc1cccc(-c2cccc3[nH]c(-c4n[nH]c5cnc(-c6cncc(OC7CCNCC7)c6)cc45)nc23)c1` [Compound 944, 3-(4-(3-Fluorophenyl)-1H-benzo[d]imidazol-2-yl)-5-(5-(piperidin-4-yloxy)pyridin-3-yl)-1H-pyrazolo[3,4-c]pyridine] was tested, and the IC50 was 1200 nM. `O=C(Nc1cncc(-c2cc3c(-c4nc5c(-c6ccsc6)cccc5[nH]4)n[nH]c3cn2)c1)C1CCC1` [Compound 280, N-(5-(3-(4-(Thiophen-3-yl)-1H-benzo[d]imidazol-2-yl)-1H-pyrazolo[3,4-c]pyridin-5-yl)pyridin-3-yl)cyclobutanecarboxamide] was tested, and the IC50 was 6.2 nM. In the case of `CC(C)CC(=O)Nc1cncc(-c2cc3c(-c4nc5c(-c6cc(F)cc(OCCN(C)C)c6)cccc5[nH]4)n[nH]c3cn2)c1` [Compound 1262, N-(5-(3-(4-(3-(2-(Dimethylamino)ethoxy)-5-fluorophenyl)-1H-benzo[d]imidazol-2-yl)-1H-pyrazolo[3,4-c]pyridin-5-yl)pyridin-3-yl)-3-methylbutanamide], the IC50 is reported as 747 nM. `O=C(CC1CCCCC1)Nc1cncc(-c2cc3c(-c4nc5c(-c6cccc(F)c6)cccc5[nH]4)n[nH]c3cn2)c1` [Compound 951, 2-Cyclohexyl-N-(5-(3-(4-(3-fluorophenyl)-1H-benzo[d]imidazol-2-yl)-1H-pyrazolo[3,4-c]pyridin-5-yl)pyridin-3-yl)acetamide] showed an IC50 of 115 nM. In the case of `Cc1ncc(-c2cc3c(-c4nc5c(-c6cccc(F)c6)cccc5[nH]4)n[nH]c3cn2)n1C` [Compound 941, 5-(1,2-Dimethyl-1H-imidazol-5-yl)-3-(4-(3-fluorophenyl)-1H-benzo[d]imidazol-2-yl)-1H-pyrazolo[3,4-c]pyridine], the IC50 is reported as 334 nM. Work on `CCCCC(=O)Nc1cncc(-c2cc3c(-c4nc5c(-c6ccoc6)cccc5[nH]4)n[nH]c3cn2)c1` [Compound 304, N-(5-(3-(4-(Furan-3-yl)-1H-benzo[d]imidazol-2-yl)-1H-pyrazolo[3,4-c]pyridin-5-yl)pyridin-3-yl)pentanamide] yielded an IC50 of 145 nM. Work on `CN(C)CC(=O)Nc1cncc(-c2cc3c(-c4nc5c(-c6cccc(F)c6)cccc5[nH]4)n[nH]c3cn2)c1` [Compound 1437, 2-(Dimethylamino)-N-(5-(3-(4-(3-fluorophenyl)-1H-benzo[d]imidazol-2-yl)-1H-pyrazolo[3,4-c]pyridin-5-yl)pyridin-3-yl)acetamide] yielded an IC50 of 155 nM.
